Experiments:
[1] = Growth inhibition of human K562-1 cells at 20 ug/ml relative to control; assay type: functional; details: read-out: GI
[2] = test system: HCT-15; assay: Growth inhibition of human HCT15 cells at 20 ug/ml relative to control; assay type: functional; details: read-out: GI
[3] = test system: HepG2; assay: Growth inhibition of human HepG2 cells at 20 ug/ml relative to control; assay type: functional; details: read-out: GI
[4] = test system: HT-29; assay: Growth inhibition of human HT-29 cells at 20 ug/ml relative to control; assay type: functional; details: read-out: GI
[5] = test system: A549; assay: Growth inhibition of human A549 cells at 20 ug/ml relative to control; assay type: functional; details: read-out: GI
[6] = test system: MDA-MB-231; assay: Growth inhibition of human MDA-MB-231 cells at 20 ug/ml relative to control; assay type: functional; details: read-out: GI
[7] = test system: HCT-8; assay: Growth inhibition of human HCT8 cells at 20 ug/ml relative to control; assay type: functional; details: read-out: GI
[8] = Growth inhibition of human Bre04 cells at 20 ug/ml after 24 hrs by sulforhodamine B assay relative to control; assay type: functional; details: Bre04, 24 h, read-out: GI
[9] = Cytotoxicity against human K562-1 cells at 100 uM after 24 hrs by sulforhodamine B assay relative to control; assay type: functional
[10] = test system: HT-29; assay: Cytotoxicity against human HT-29 cells at 100 uM after 24 hrs by sulforhodamine B assay relative to control; assay type: functional
[11] = test system: HCT-15; assay: Antiproliferative activity against human HCT15 cells after 24 hrs by sulforhodamine B assay relative to control; assay type: functional, cell-based; details: HCT-15, 24 h
[12] = Cytotoxicity against human K562-1 cells at 50 uM after 24 hrs by sulforhodamine B assay relative to control; assay type: functional
[13] = test system: A549; assay: Cytotoxicity against human A549 cells at 100 uM after 24 hrs by sulforhodamine B assay relative to control; assay type: functional
[14] = test system: HT-29; assay: Cytotoxicity against human HT-29 cells at 50 uM after 24 hrs by sulforhodamine B assay relative to control; assay type: functional
[15] = Cytotoxicity against human K562-1 cells at 5 uM after 24 hrs by sulforhodamine B assay relative to control; assay type: functional
[16] = test system: HCT-15; assay: Cytotoxicity against human HCT15 cells at 50 uM after 24 hrs by sulforhodamine B assay relative to control; assay type: functional
[17] = Cytotoxicity against human K562-1 cells at 10 uM after 24 hrs by sulforhodamine B assay relative to control; assay type: functional
[18] = test system: HCT-15; assay: Cytotoxicity against human HCT15 cells at 100 uM after 24 hrs by sulforhodamine B assay relative to control; assay type: functional
[19] = test system: HCT-15; assay: Cytotoxicity against human HCT15 cells at 20 uM after 24 hrs by sulforhodamine B assay relative to control; assay type: functional
[20] = Cytotoxicity against human K562-1 cells at 20 uM after 24 hrs by sulforhodamine B assay relative to control; assay type: functional
[21] = test system: HCT-15; assay: Cytotoxicity against human HCT15 cells at 10 uM after 24 hrs by sulforhodamine B assay relative to control; assay type: functional
[22] = test system: A549; assay: Cytotoxicity against human A549 cells at 50 uM after 24 hrs by sulforhodamine B assay relative to control; assay type: functional
[23] = Antiproliferative activity against human K562-1 cells after 24 hrs by sulforhodamine B assay relative to control; assay type: functional, cell-based
[24] = test system: HT-29; assay: Cytotoxicity against human HT-29 cells at 10 uM after 24 hrs by sulforhodamine B assay relative to control; assay type: functional
[25] = test system: HT-29; assay: Cytotoxicity against human HT-29 cells at 20 uM after 24 hrs by sulforhodamine B assay relative to control; assay type: functional
[26] = test system: HCT-15; assay: Cytotoxicity against human HCT15 cells at 5 uM after 24 hrs by sulforhodamine B assay relative to control; assay type: functional
[27] = test system: A549; assay: Growth inhibition of human A549 cells at 20 ug/ml after 24 hrs by sulforhodamine B assay relative to control; assay type: functional; details: A549, 24 h, read-out: GI
[28] = test system: HT-29; assay: Growth inhibition of human HT-29 cells at 20 ug/ml after 24 hrs by sulforhodamine B assay relative to control; assay type: functional; details: HT-29, 24 h, read-out: GI
[29] = test system: HCT-15; assay: Growth inhibition of human HCT15 cells at 20 ug/ml after 24 hrs by sulforhodamine B assay relative to control; assay type: functional; details: HCT-15, 24 h, read-out: GI
[30] = test system: A549; assay: Cytotoxicity against human A549 cells at 20 uM after 24 hrs by sulforhodamine B assay relative to control; assay type: functional
[31] = Growth inhibition of human K562-1 cells at 20 ug/ml after 24 hrs by sulforhodamine B assay relative to control; assay type: functional; details: read-out: GI
[32] = test system: A549; assay: Antiproliferative activity against human A549 cells after 24 hrs by sulforhodamine B assay relative to control; assay type: functional, cell-based; details: A549, 24 h
[33] = test system: A549; assay: Cytotoxicity against human A549 cells at 5 uM after 24 hrs by sulforhodamine B assay relative to control; assay type: functional
[34] = test system: A549; assay: Cytotoxicity against human A549 cells at 10 uM after 24 hrs by sulforhodamine B assay relative to control; assay type: functional

Structure (SMILES)	inhibition of growth at 20 µg/mL [1]	inhibition of growth at 20 µg/mL [2]	inhibition of growth at 20 µg/mL [3]	inhibition of growth at 20 µg/mL [4]	inhibition of growth at 20 µg/mL [5]	inhibition of growth at 20 µg/mL [6]	inhibition of growth at 20 µg/mL [7]	inhibition of growth at 20 µg/mL [8]	Activity [9]	Activity [10]	IC50 [11]	Activity [12]	Activity [14]	Activity [15]	Activity [16]	Activity [17]	Activity [18]	Activity [19]	Activity [20]	Activity [21]	other results
O=C1[C@@H]2CCCN2C(=O)/C(=C\c2ccccc2)N1OC1CCCCC1	78.2%	72.3%	68.5%	69.4%	33.8%	17.3%	76.3%														
COc1cc(/C=C2\C(=O)N3CCC[C@H]3C(=O)N2OCc2ccccc2)cc(OC)c1OC	73.2%	74.2%	75%	70.1%	8.9%	43.2%	79.1%														
CON1C(=O)[C@@H]2CCCN2C(=O)/C1=C\c1ccccc1	90.4%	88.8%	62.2%	65.4%	26.6%	23.5%	78.8%	24.5%	98.6%	88.6%	14.1 µM	87.3%	56.4%	24.4%	82.6%	36.2%	96.5%	60.5%	55.4%	46.8%	Activity [13]: 50.5%; Activity [22]: 22.4%; IC50 [23]: 17.6 µM; Activity [24]: 28.1%; Activity [25]: 34.9%; Activity [26]: 37.3%
CCCCON1C(=O)[C@@H]2CCCN2C(=O)/C1=C\c1cc(OC)c(OC)c(OC)c1	64.4%	61.6%	64.3%	61.6%	43.4%	45.6%	60.6%														
COc1cc(/C=C2\C(=O)N3CCC[C@H]3C(=O)N2OCc2cccnc2)cc(OC)c1OC																					inhibition of growth at 20 µg/mL [27]: 27.1%; inhibition of growth at 20 µg/mL [28]: 30.7%; inhibition of growth at 20 µg/mL [29]: 78.7%
CCCCON1C(=O)[C@@H]2CCCN2C(=O)/C1=C\c1ccccc1	96.2%	90.6%	59.9%	64.9%	50.8%	16.3%	68.4%		99.6%	80.6%	11.8 µM	92.7%	61.6%	30.2%	87.5%	39.2%	99.1%	78.3%	46.5%	48.8%	Activity [30]: 16.2%; Activity [13]: 91.1%; Activity [22]: 48.4%; IC50 [23]: 27.3 µM; Activity [24]: 21.2%; Activity [25]: 39.8%; Activity [26]: 4.04%
COc1cc(/C=C2\C(=O)N3CCC[C@H]3C(=O)N2OCc2ccc(Cl)cc2)cc(OC)c1OC								50.3%	97.8%	86.8%	8.6 µM	96.5%	55.7%	36.7%	94.4%	58.1%	98.6%	81.6%	73.9%	60.5%	Activity [30]: 63.4%; inhibition of growth at 20 µg/mL [27]: 76.6%; Activity [13]: 91.7%; inhibition of growth at 20 µg/mL [31]: 95.7%; IC50 [32]: 11.4 µM; Activity [33]: 4.03%; inhibition of growth at 20 µg/mL [28]: 53.2%; Activity [22]: 81.8%; IC50 [23]: 7.3 µM; Activity [24]: 24.2%; inhibition of growth at 20 µg/mL [29]: 92.6%; Activity [25]: 39.2%; Activity [26]: 42.4%; Activity [34]: 48.1%
O=C1[C@@H]2CCCN2C(=O)/C(=C\c2ccccc2)N1OCc1ccccc1	65.6%	69.7%	69.2%	76.2%	41.3%	32.6%	66.8%	25%													
COc1cc(/C=C2\C(=O)N3CCC[C@H]3C(=O)N2OC2CCCCC2)cc(OC)c1OC		67.9%	76.1%	60.5%	26.4%	42.5%	75.2%		96.4%	88.5%	23.7 µM	83.6%	56.6%	30.2%	69.3%	50.7%	89.7%	47.6%	61.3%	39.2%	Activity [30]: 20.5%; inhibition of growth at 20 µg/mL [31]: 80.1%; Activity [22]: 33.4%; IC50 [23]: 9.8 µM; Activity [24]: 48.8%; Activity [25]: 42.9%; Activity [26]: 40.4%
O=C1[C@@H]2CCCN2C(=O)/C(=C\c2cccnc2)N1OC1CCCCC1	69.3%	62.1%	60.4%	70.3%	35.2%	16.1%	80.1%	35.3%													
CCON1C(=O)[C@@H]2CCCN2C(=O)/C1=C\c1ccccc1								21.9%													inhibition of growth at 20 µg/mL [27]: 25.3%; inhibition of growth at 20 µg/mL [31]: 42.6%; inhibition of growth at 20 µg/mL [28]: 62.8%

Source: ChEMBL document CHEMBL4428092, “Synthesis and activity evaluation of the cyclic dipeptides arylidene N-alkoxydiketopiperazines” (Bioorg Med Chem, 2016)
